Common to all, as to test: inhibition of tumour cell growth, NCI panel, 48 h
In test [1] the test system is SN12C renal.
Test [2] has as its system LOX IMVI melanoma.
The subject of test [3] is NCI-H522 lung.
The test system of test [4] is OVCAR-4 ovarian.
The subject of test [5] is 786-0 renal.
Test [6] concerns SNB-19 CNS.
Test [7] deals with A498 renal.
Test [8] relates to MALME-3M melanoma.
Test [9] has as its system NCI/ADR-RES ovarian.
In test [10] the test system is UACC-257 melanoma.

Several values for one entry are separate records, joined by “and”; a condition that tells them apart may be missing. Equal entries are not always repeated.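 Test compounds were applied to cells in 96-well plates for 48 hours at 5 doses. Here, GI50 denotes the concentration required for 50% inhibition of growth. At the TGI there is no net growth.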

For `CC(=O)c1c2c(cc3c1CCC3)CCC2`, the TGI in test [1], in test [2], in test [3], in test [4], in [5] and in test [6] was over 100 µM in each case. Also, the TGI in test [7], in test [8], in test [9] and in [10] was over 100 µM each time.
For `CC(C)(CO)Nc1c(O)c2c(c(O)c1Cl)C(=O)C=CC2=O`, the TGI came to 2.91 µM in test [1]; 1.19 µM in test [2]; 0.928 µM in [3]; 2.92 µM in test [4]; 2.85 µM in [5]; 3.5 µM in test [6]. For the same compound, the TGI in [7] came out at 3.36 µM; in test [8], 3.33 µM; in [9] it was 3.65 µM; in test [10], 3.11 µM.
Regarding `C[S+](C)C1(c2ccccc2)C(=O)c2ccccc2C1=O`, the TGI was over 100 µM in test [1]; over 72.7 µM in [2]; over 68.7 µM in test [3]; over 100 µM in test [4]; over 100 µM in test [5]; over 100 µM in test [6]. Besides, the TGI in test [7], in [8], in [9] and in test [10] was over 100 µM throughout.
For the compound `COc1ccc(C2CCc3c(cnc4nc(N)nc(N)c34)C2)cc1` (configuration not stated), the TGI is over 100 µM in test [1]; over 100 µM in [2]; 44.9 µM in test [3]; over 100 µM in [4]; 26.8 µM in test [5]; over 100 µM in [6]. Further, the TGI in [7], in test [8], in test [9] and in test [10] was over 100 µM throughout.
On to `Cc1cc(=O)oc2c(CN(CCCl)CCCl)c(O)ccc12`, for which the TGI in [1] was over 100 µM; in [2], over 100 µM; in test [3] it was 36.4 µM; in test [4], over 100 µM; in test [5], over 100 µM; in [6], over 100 µM. Moreover, the TGI in test [7], in [8], in [9] and in [10] was over 100 µM each time.
`Fc1sc2c(c1F)C1CCC2C1` (configuration not stated): the TGI in [1], in [2], in test [3], in test [4], in test [5] and in test [6] was over 100 µM throughout. For the same compound, the TGI in [7], in [8], in [9] and in [10] was over 100 µM in each case.
As to `O=C1CSC(c2cc3cc(Br)ccc3nc2Cl)N1c1ccc(F)c(Cl)c1` (configuration not stated), the TGI in [1], in test [2], in [3], in [4], in test [5] and in [6] was over 50 µM each time. Besides, the TGI in [7], in [8], in [9] and in [10] was over 50 µM each time.
With `Cc1cc(C)c(N)c(CO)c1`, the TGI in test [1], in test [2], in [3], in test [4], in [5] and in [6] was over 100 µM each time. In addition, the TGI in test [7] is 0.231 µM and 0.409 µM; in [8], over 100 µM; in [9], over 100 µM; in test [10] it was over 100 µM. For the same compound, the GI50 in test [3] is > 100 µM and 42.5 µM; in test [7], 0.0675 µM and 0.183 µM.
`CSC(=N/N=C(\C)c1ccc(S(=O)(=O)N(C)c2ccccc2)cc1)SC`: the TGI in test [1], in test [2], in test [3], in test [4], in test [5] and in test [6] was over 100 µM throughout. Further, the TGI in test [7], in test [8], in test [9] and in test [10] was over 100 µM throughout.
Turning to `Cc1cnc2[nH]c(-c3sccc3C)cc(=O)c2c1`, the TGI was over 100 µM in [1]; over 100 µM in test [2]; 4.49 µM in test [3]; over 100 µM in test [4]; over 100 µM in test [5]; over 40.8 µM in [6]. Further, the TGI in test [7], in test [8], in [9] and in [10] was over 100 µM in each case.
On to `Cc1cc(S(=O)(=O)Nc2n[nH]c(N)n2)c(S)cc1Cl`, for which the TGI in test [1], in test [2], in [3], in test [4], in test [5] and in test [6] was over 10 µM throughout. For the same compound, the TGI in test [7], in [8], in test [9] and in test [10] was over 10 µM throughout.
Take `O=C(N(C1=CCCC1)N(c1ccccc1)c1ccccc1)C(F)(F)F`: the TGI in [1] was 78.7 µM; in test [2], 31.5 µM; in test [3] it was 25.3 µM; in [4], over 100 µM; in [5], 96.5 µM; in [6] it was over 100 µM. Further, the TGI is over 100 µM in [7], 14.4 µM in test [8], 87.9 µM in test [9] and 58.9 µM in [10].
As to `CC(C)(C)C1=CC(O)(c2c3ccccc3c(C3(O)C=C(C(C)(C)C)C(=O)C(C(C)(C)C)=C3)c3ccccc23)C=C(C(C)(C)C)C1=O`, the TGI in test [1], in test [2], in [3], in test [4], in test [5] and in [6] was over 100 µM throughout. Further, the TGI in [7] was 0.65 µM; in test [8], over 100 µM; in test [9], over 100 µM; in test [10], over 100 µM.

The values are drawn from PubChem BioAssay (NCI).
